In assay [1] the test system is basophils artificially sensitized in a passive manner with serum IgEs from patients suffering from rhinallergosis caused by mites. Put plainly: Passive histamine release (inhibition) test with passively sensitized basophils. It is filed as cell-based, human. As to the method:
To 20 ml of heparinized venous blood, 5 ml of a 4.5% dextran solution were added and the mixture was allowed to stand for 30 to 60 minutes at room temperature. The upper leukocyte layer was extracted and subjected to a repetitive centrifugal operation. The leukocytes were then washed with PBS. To the leuokocytes in a precipitated fraction, 20 ml of a lactate buffer (pH 3.9, 4°C) were added and thoroughly mixed. After cooling the mixture on ice for 2 to 5 minutes, the pH was returned to neutral by adding PBS (25 ml). By this operation, IgEs on basophils were released. The leukocytes were washed well with PBS and suspended in 0.5% human albumin/PBS. 100 µl of cell suspension (approximately 2 x 10⁵ cells/well) were added to a V-bottom 96-well plate. Fifty µl of a pooled serum of patients suffering from rhinallergosis caused by mites were further added, and reaction was allowed to proceed for 1 hour at 37°C. This procedure caused serum IgEs from the patients suffering from rhinallergosis caused by mites to be bound to IgE receptors. Thus, basophils artificially sensitized in a passive manner with serum IgEs from patients suffering from rhinallergosis caused by mites can be obtained (Pruzansky J.J. et al., J. Immunol., 131; 1949-1953, 1983). The plate was centrifuged to remove 100 µl of a supernatant. 100 µl of a 0.5% human albumin/PBS were added to the residue and centrifuged again. The centrifugal operation was repeated twice, and the cells were then washed. 100 µl of a Der p II peptide (55-63) having a predetermined concentration of PBS were combined with 50 µl of an MBE (10 µg/50 µl) or PBS, and allowed to react for 30 minutes at 37°C. The plate was then centrifuged to collect 100 µl of a supernatant. The amount of histamine was determined using a histamine assay kit manufactured by Eiken Kagaku K.K.
Essentially, a histamine release test is performed to determine the amount of histamine released when an antigen solution (an allergen solution) is added to a sample of whole blood (fresh blood) from an allergic patient. […]

Assay [2] concerns serum IgE from 15 patients suffering from mite rhinallergosis. Put plainly: Enzyme antibody assay: binding of solid phase Der p II overlapping peptides to patients' serum IgE. The note with it: serum from each of 15 patients. More on the design: species or system human. As to the method:
The complete primary structure of the amino acid sequence of a Der p II protein was determined after cDNA was isolated therefrom by Chua et al. (Int. Arch. Allergy Appl. Immunol. 91: 118-123, 1990). Based on the amino acid sequence, peptides were synthesized on a solid phase using a multipin system (manufactured by Chiron) and coupling reagents, Fmoc-amino acid and DCC (dicyclohexyl carbodiimide) (Geysen, H.M. et al., Proc. Natl. Acad. Sci. USA. 81:3998-4002, 1984). Sixty-one kinds of peptides were synthesized, the first peptide comprising the first through ninth amino acids of the N-terminal of Der p II, the second peptide comprising the third through eleventh amino acids of the N-terminal, and the third through 61st peptides being prepared in an analogous manner.
The RAST (radio-allergosorbent test, Pharmacia) values as determined using antigens from two mite species, Dermatophagoides pteronyssinus (Der p) and Dermatophagoides farina (D f), were class 4. Each of the above-mentioned 61 synthesized peptides and 100 µl of each patient's serum were placed in a 96-well plate and reacted overnight at room temperature. Synthesized peptides in a solid phase were washed three times to remove the patient's serum using a washing solution of 0.05% Tween 20/0.15 M NaCl/Tris-HCl (pH 7.5). 100 µl of galactosidase-labelled anti-human IgE antibodies (Pharmacia) were diluted to 40-fold using a 1:9 diluted Block-ace (product of Dainippon Seiyaku K.K.). The diluted solution was added to a 96-well plate, each synthesized solid phase peptide was also added, and reaction, was allowed to proceed overnight at room temperature. The synthesized solid phase peptide was washed with the same washing solution five times. Thereafter, to a 96-well black plate (manufactured by Dainippon Seiyaku K.K.), were added 200 µl of a solution of 0.1 mM 4-methylumbelliferyl-β-D-galactopyranoside in 0.1% bovine serum albumin/0.1 M NaCl/1 mM MgCl₂/0.1% sodium azide/10 mM phosphate buffer (pH 7.0). Subsequently, the synthesized solid phase peptide was added and reacted for 2 hours at 37°C. After completion of reaction, 100 µl of a reaction terminating solution (0.1 M glycin/NaOH, pH 10.3) were added to each well, and absorbance was measured using a fluorospectrophotometer for 96-well plates (Manufactured by Flow). This reaction was studied for each of 15 patients.

Assay [3] relates to pooled patients' serum IgE. In words: Binding inhibition assay: pooled patients' serum IgE to mite body extract (MBE). The note with it: peptide concentration of about 5 µg/ml - 5 mg/ml; pooled serum of 10 patients. More on the design: species or system human. As to the method: A crude mite body extract (MBE) was prepared from a mite, Dermatophagoides pteronyssinus (Der p), by homogenizing Der p mite bodies in 0.15 M NaCl/phosphate buffer (pH 7.3, PBS) using a Teflon homogenizer and centrifugally separating to collect the supernatant. A pooled serum IgE from patients was prepared by blending sera from 10 patients suffering from rhinallergosis caused by mites (RAST values with respect to Dermat ophagoides pteronyssinus: 3 or more). The peptide (Der p II 55-63) was synthesized by a Fmoc method using a peptide synthesizer pssm 8 manufactured by Shimadzu Corporation. The results of the synthesis were confirmed by an amino acid analysis and by an analysis of the primary structure. The MBE was added to each well of a 96-well black plate (Dainippon Seiyaku k.K.) so that the amount of protein contained was 1 µg/well (100 µl). The plate was allowed to stand overnight at 4°C. […] After completion of reaction, 100 µl of a reaction terminating liquid (0.1 M glycin/NaOH, pH 10.3) were added to each well, and absorbance was measured using a fluorospectrophotometer for 96-well plates (Manufactured by Flow). The absorbance in a control which was prepared by adding a PBS solution in place of the peptide was taken as 100%.

Ends that are not written are not given here.

KASIDGLEV [synthesized peptide No. 28]: the “suppression of histamine release caused by MBE” value in assay [1] (low peptide concentrations) is given as “could not suppress histamine release”; in assay [1] (peptide concentration 7.55 mg/ml, MBE 10 µg/50 µl), “about 90%”. The histamine release result in assay [1] (substance added alone to passively sensitized basophils) is “histamine was scarcely released”. Besides, the “binding reactions with IgE antibodies” value in assay [2] is given as “exhibited binding reactions with IgE antibodies”. For the same sequence, the “inhibition of binding of pooled patients' serum IgE to MBE” value in assay [3] was determined as 20%.

The values above are taken from patent EP0714662A1, “ANTIALLERGIC AGENT” (MEIJI MILK PRODUCTS COMPANY LIMITED, priority 1993, dated 1995).
